Calls of active or inactive are those of the source. The calls are words filed in the database; no cut-off is given here.

The subject of assay [1] is SU-DHL-6. As to the kind of experiment: Antiproliferative activity against human SU-DHL-6 cells assessed as cell growth inhibition incubated for 72 hrs by MTT assay. Format: functional. A general note: Tetrazolium dyes change colour on reduction, which living cells bring about.
For assay [2], the system named is SU-DHL-6. As to the kind of experiment: Inhibition of AKT phosphorylation in human SU-DHL-6 cells at 0.1 to 1 uM incubated for 24 hrs by Western blot analysis. Particulars: dose 0.1-1 µM. Format: cell-based. Background: A western blot detects proteins with antibodies after separation by electrophoresis.
In another assay the test system is Pfeiffer. In words: Antiproliferative activity against human Pfeiffer cells assessed as cell growth inhibition incubated for 72 hrs by MTT assay. Format: functional.
The test system of assay [3] is SU-DHL-6. As to the kind of experiment: Inhibition of AKT phosphorylation in human SU-DHL-6 cells at higher concentration incubated for 24 hrs by Western blot analysis. Format: cell-based.
Assay [4] relates to SU-DHL-6. In words: Inhibition of AKT phosphorylation in human SU-DHL-6 cells at 1 to 10000 nM incubated for 24 hrs by Western blot analysis. Format: cell-based. Particulars: dose 1-10000 nM.
Assay [5] concerns SU-DHL-6. As to the kind of experiment: Induction of autophagy in human SU-DHL-6 cells assessed as increase in LC3-II to LC3-I ratio at 1 to 100 nM incubated for 24 hrs by Western blot analysis. Format: functional, cell-based. Conditions: dose 1-100 nM.

A word on the GI50: it is the concentration at which growth is held to half of that of the control. For `COc1ncc(-c2ccc3ncnc(N[C@H]4CCN(C(=O)CCC(=O)NCCCC(=O)Nc5cccc6c5CN(C5CCC(=O)NC5=O)C6=O)C4)c3c2)cc1C#N` (stereo partly drawn), the GI50 in the assay with SU-DHL-6 [1] was more than 10 µM. The inhibition entry in the assay on SU-DHL-6 [2] was “inactive”.
For `COc1ncc(-c2ccc3ncnc(N[C@H]4CCN(C(=O)C5CCN(C(=O)CCCCCCCCCN[C@H](C(=O)N6C[C@H](O)C[C@H]6C(=O)NCc6ccc(-c7scnc7C)cc6)C(C)(C)C)CC5)C4)c3n2)cc1C(=O)Oc1ccccc1`, the results for the GI50 in the assay on SU-DHL-6 [1] and with Pfeiffer were 0.3 µM and more than 10 µM, respectively. Further, in the assay with SU-DHL-6 [2], the inhibition entry was “Active”.
`COc1ncc(-c2ccc3ncnc(N[C@H]4CCN(C(=O)CCCCCC(=O)Nc5cccc6c5CN(C5CCC(=O)NC5=O)C6=O)C4)c3c2)cc1C#N` (stereo partly drawn): the GI50 in the assay on SU-DHL-6 [1] was more than 10 µM. Also, in the assay with SU-DHL-6 [2], the inhibition entry was “inactive”.
In the case of `COc1ncc(-c2ccc3ncnc(N[C@H]4CCN(C(=O)C5CCN(CCCCCCCC(=O)N[C@H](C(=O)N6C[C@H](O)C[C@H]6C(=O)NCc6ccc(-c7scnc7C)cc6)C(C)(C)C)CC5)C4)c3n2)cc1C(=O)Oc1ccccc1`, the GI50 in the assay with SU-DHL-6 [1] came out at 0.76 µM; in the assay on Pfeiffer, 0.77 µM. Besides, the inhibition entry with SU-DHL-6 [2] is “Active”.
In the case of `COc1ncc(-c2ccc3ncnc(N[C@H]4CCN(C(=O)C5CCN(CCCCCCC(=O)N[C@H](C(=O)N6C[C@H](O)C[C@H]6C(=O)NCc6ccc(-c7scnc7C)cc6)C(C)(C)C)CC5)C4)c3n2)cc1C(=O)Oc1ccccc1`, the GI50 in the assay on SU-DHL-6 [1] worked out at 2.63 µM; in the assay with Pfeiffer it was 2.96 µM. Also, in the assay with SU-DHL-6 [2], the inhibition entry is “Active”.
Consider `COc1ncc(-c2ccc3ncnc(N[C@H]4CCN(C(=O)C5CCN(CCCCCCCCCC(=O)Nc6cccc7c6CN(C6CCC(=O)NC6=O)C7=O)CC5)C4)c3n2)cc1C(=O)Oc1ccccc1` (stereo partly drawn), for which the GI50 in the assay on SU-DHL-6 [1] is 0.49 µM; with Pfeiffer, more than 10 µM. In addition, the inhibition entry in the assay on SU-DHL-6 [2] is “Active”.
`COc1ncc(-c2ccc3ncnc(N[C@H]4CCN(C(=O)CCC(=O)NCCC(=O)Nc5cccc6c5CN(C5CCC(=O)NC5=O)C6=O)C4)c3c2)cc1C#N` (stereo partly drawn): the GI50 with SU-DHL-6 [1] is more than 10 µM. For the same molecule, the inhibition entry in the assay on SU-DHL-6 [2] was “inactive”.
With `COc1ncc(-c2ccc3ncnc(N[C@H]4CCN(C(=O)CCC(=O)NCC(=O)Nc5cccc6c5CN(C5CCC(=O)NC5=O)C6=O)C4)c3c2)cc1C#N` (stereo partly drawn), the GI50 in the assay with SU-DHL-6 [1] was more than 10 µM. Further, the inhibition entry in the assay on SU-DHL-6 [2] was “inactive”.
For the molecule `COc1ncc(-c2ccc3ncnc(N[C@H]4CCN(C(=O)C5CCN(CCCCCCCCCC(=O)N[C@H](C(=O)N6C[C@@H](O)C[C@H]6C(=O)N[C@@H](C)c6ccc(-c7scnc7C)cc6)C(C)(C)C)CC5)C4)c3n2)cc1C(=O)Oc1ccccc1`, in the assay with SU-DHL-6 [3], the inhibition entry was “Active”. Also, in the assay with SU-DHL-6 [1], the GI50 came to 0.87 µM.
As for `COc1ncc(-c2ccc3ncnc(N[C@H]4CCN(C(=O)CCC(=O)NCCOCCOCC(=O)Nc5cccc6c5CN(C5CCC(=O)NC5=O)C6=O)C4)c3c2)cc1C#N` (stereo partly drawn), the GI50 in the assay with SU-DHL-6 [1] is more than 10 µM. Also, the inhibition result in the assay on SU-DHL-6 [2] is “inactive”.
Consider `COc1ncc(-c2ccc3ncnc(N[C@H]4CCN(C(=O)CCCCCCC(=O)N[C@H](C(=O)N5C[C@H](O)C[C@H]5C(=O)NCc5ccc(-c6scnc6C)cc5)C(C)(C)C)C4)c3c2)cc1C#N`, for which, in the assay on SU-DHL-6 [1], the GI50 was more than 10 µM. Besides, the inhibition result in the assay with SU-DHL-6 [2] was “inactive”.
For the molecule `COc1ncc(-c2ccc3ncnc(N[C@H]4CCN(CCCCCCCC(=O)N[C@H](C(=O)N5C[C@H](O)C[C@H]5C(=O)NCc5ccc(-c6scnc6C)cc5)C(C)(C)C)C4)c3n2)cc1C(=O)Oc1ccccc1`, the results for the GI50 in the assay on SU-DHL-6 [1] and with Pfeiffer were 0.9 µM and 1.28 µM, respectively. Besides, the inhibition entry with SU-DHL-6 [2] is “Active”.
In the case of `COc1ncc(-c2ccc3ncnc(N[C@H]4CCN(CCCCCCCCCC(=O)N[C@H](C(=O)N5C[C@H](O)C[C@H]5C(=O)NCc5ccc(-c6scnc6C)cc5)C(C)(C)C)C4)c3n2)cc1C(=O)Oc1ccccc1`, the GI50 in the assay with SU-DHL-6 [1] was found to be 2.48 µM; with Pfeiffer, 1.37 µM. Also, the inhibition result with SU-DHL-6 [2] was “Active”.
Taken in the same sequence, the figures for `COc1ncc(-c2ccc3ncnc(N[C@H]4CCN(CCCCCCCCC(=O)N[C@H](C(=O)N5C[C@H](O)C[C@H]5C(=O)NCc5ccc(-c6scnc6C)cc5)C(C)(C)C)C4)c3n2)cc1C(=O)Oc1ccccc1` were 1.37 µM, 1.25 µM and “Active”.
As for `COc1ncc(-c2ccc3ncnc(N[C@H]4CCN(C(=O)C5CCN(CCCCCCCCCCCC(=O)N[C@H](C(=O)N6C[C@H](O)C[C@H]6C(=O)NCc6ccc(-c7scnc7C)cc6)C(C)(C)C)CC5)C4)c3n2)cc1C(=O)Oc1ccccc1`, the GI50 was found to be 0.4 µM with SU-DHL-6 [1] and 1.94 µM in the assay with Pfeiffer. The inhibition entry in the assay with SU-DHL-6 [2] was “Active”.
Regarding `COc1ncc(-c2ccc3ncnc(N[C@H]4CCN(C(=O)C5CCN(CCCCCC(=O)N[C@H](C(=O)N6C[C@H](O)C[C@H]6C(=O)NCc6ccc(-c7scnc7C)cc6)C(C)(C)C)CC5)C4)c3n2)cc1C(=O)Oc1ccccc1`, the GI50 was 2.47 µM in the assay on SU-DHL-6 [1] and more than 10 µM in the assay with Pfeiffer. In addition, in the assay on SU-DHL-6 [2], the inhibition entry was “Active”.
With `COc1ncc(-c2ccc3ncnc(N[C@H]4CCN(C(=O)C5CCN(CCCCCCCCCCC(=O)N[C@H](C(=O)N6C[C@H](O)C[C@H]6C(=O)NCc6ccc(-c7scnc7C)cc6)C(C)(C)C)CC5)C4)c3n2)cc1C(=O)Oc1ccccc1`, the GI50 in the assay with SU-DHL-6 [1] stood at 0.18 µM; in the assay on Pfeiffer, 0.34 µM. For the same molecule, the inhibition result with SU-DHL-6 [4] and with SU-DHL-6 [2] was “Active” throughout. Besides, the outcome with SU-DHL-6 [5] was Active.
Consider `COc1ncc(-c2ccc3ncnc(N[C@H]4CCN(C(=O)C5CCN(CCCCCCCCCCCCC(=O)N[C@H](C(=O)N6C[C@H](O)C[C@H]6C(=O)NCc6ccc(-c7scnc7C)cc6)C(C)(C)C)CC5)C4)c3n2)cc1C(=O)Oc1ccccc1`, for which the values for the GI50 with SU-DHL-6 [1] and in the assay with Pfeiffer were 0.48 µM and 1.06 µM, respectively. For the same molecule, the inhibition entry with SU-DHL-6 [2] was “Active”.
As to `COc1ncc(-c2ccc3ncnc(N[C@H]4CCN(C(=O)C5CCN(CCCCCCCCC(=O)N[C@H](C(=O)N6C[C@H](O)C[C@H]6C(=O)NCc6ccc(-c7scnc7C)cc6)C(C)(C)C)CC5)C4)c3n2)cc1C(=O)Oc1ccccc1`, the GI50 in the assay on SU-DHL-6 [1] was found to be 0.73 µM; with Pfeiffer, 0.6 µM. Besides, the inhibition result in the assay on SU-DHL-6 [2] was “Active”.
For the molecule `COc1ncc(-c2ccc3ncnc(N[C@H]4CCN(C(=O)CCCCCCC(=O)Nc5cccc6c5CN(C5CCC(=O)NC5=O)C6=O)C4)c3c2)cc1C#N` (stereo partly drawn), the GI50 with SU-DHL-6 [1] was more than 10 µM. In addition, the inhibition result in the assay with SU-DHL-6 [2] is “inactive”.
Taken in the same sequence, the figures for `COc1ncc(-c2ccc3ncnc(N[C@H]4CCN(C(=O)CCCCC(=O)Nc5cccc6c5CN(C5CCC(=O)NC5=O)C6=O)C4)c3c2)cc1C#N` (stereo partly drawn) were more than 10 µM and “inactive”.
As for `COc1ncc(-c2ccc3ncnc(N[C@H]4CCN(C(=O)C5CCN(CCCCCCCCCC(=O)N[C@H](C(=O)N6C[C@H](O)C[C@H]6C(=O)N[C@@H](C)c6ccc(-c7scnc7C)cc6)C(C)(C)C)CC5)C4)c3n2)cc1C(=O)Nc1ccccc1`, in the assay with SU-DHL-6 [3], the inhibition entry was “Active”. Further, in the assay with SU-DHL-6 [1], the GI50 was found to be 0.9 µM.
As for `COc1ncc(-c2ccc3ncnc(N[C@H]4CCN(C(=O)CCC(=O)NCCCCCC(=O)Nc5cccc6c5CN(C5CCC(=O)NC5=O)C6=O)C4)c3c2)cc1C#N` (stereo partly drawn), in the assay with SU-DHL-6 [1], the GI50 was more than 10 µM. In addition, the inhibition entry with SU-DHL-6 [2] was “inactive”.
Take `COc1ncc(-c2ccc3ncnc(N[C@H]4CCN(CCCCCCC(=O)N[C@H](C(=O)N5C[C@H](O)C[C@H]5C(=O)NCc5ccc(-c6scnc6C)cc5)C(C)(C)C)C4)c3n2)cc1C(=O)Oc1ccccc1`: the figures for the GI50 in the assay with SU-DHL-6 [1] and with Pfeiffer were 1.23 µM and 1.41 µM, respectively. Also, the inhibition entry with SU-DHL-6 [2] was “Active”.

The values are drawn from ChEMBL document CHEMBL6134931, “Lysine-Targeted Covalent Strategy Leading to the Discovery of Novel Potent PROTAC-Based PI3Kδ Degraders” (J Med Chem, 2025).
